From publication PMC7383607, “Kinetic and structural studies of Trypanosoma and Leishmania phosphofructokinases show evolutionary divergence and identify AMP as a switch regulating glycolysis versus gluconeogenesis” (The Febs Journal, 2020)

B1: Trypanosoma brucei phosphofructokinase (enzyme)
chain: MAVESRSRVTSKLVKAHRAMLNSVTQEDLKVDRLPGADYPNPSKKYSSRTEFRDKTDYIMYNPRPRDEPSSENPVSVSPLLCELAAARSRIHFNPTETTIGIVTCGGICPGLNDVIRSITLTGINVYNVKRVIGFRFGYWGLSKKGSQTAIELHRGRVTNIHHYGGTILGSSRGPQDPKEMVDTLERLGVNILFTVGGDGTQRGALVISQEAKRRGVDISVFGVPKTIDNDLSFSHRTFGFQTAVEKAVQAIRAAYAEAVSANYGVGVVKLMGRDSGFIAAQAAVASAQANICLVPENPISEQEVMSLLERRFCHSRSCVIIVAEGFGQDWGRGSGGYDASGNKKLIDIGVILTEKVKAFLKANKSRYPDSTVKYIDPSYMIRACPPSANDALFCATLATLAVHEAMAGATGCIIAMRHNNYILVPIKVATSVRRVLDLRGQLWRQVREITVDLGSDVRLARKLEIRRELEAINRNRDRLHEELAKL
notes: ATP-dependent phosphofructokinase of Trypanosoma brucei; 53-kDa subunit; residues up to 486 are named in the structure; The N-terminal His6 tag is stated for the SPR experiments and 'His-tagged TbPFK' for the kinetics; also called TbPFK; T. brucei PFK
B2: TcPFK (Trypanosoma cruzi phosphofructokinase) (Trypanosoma cruzi strain CL Brener) (protein)
chain: MENRLRDTSRVVRSHAAPLNEVTQEDLKVERLHGRKYMNPSKKHVMREEFSDKIEHIMHDPRPQEGVHSELPVSISPLLCELAAPRQRIHFNPPETVVGIVTCGGICPGLNDVIRSLTLTAVNAYRVKRVIGFRFGYWGLSKKGSHTAMELYRTSVTSIHRYGGTILGSSRGPQDTSEMVDTLERLGVNILFTVGGDGTQRGALKIAEEAKRRGANLAVFGIPKTIDNDLSFSHRTFGFETAVDKAVEAVRAAYAEAISLNYGVGVVKLMGRDSGFIAAEAAVASAQANICLVPENPISEDIVMALIQRRFETSRSCVIIVAEGFGQDWEGGTGGHDASGNKKLTDIGVVLTKRIQAWLRKNKERYPNGTVKYIDPSYMIRACPPSANDALFCATLSTLAMHEAMAGATNCIIALRYNSYILVPIKVATSVRRVLDLRGQLWRQVREITVGLQDDVRAFKEAEVRRELEAISLVRERLIGQLSKL
notes: recombinant, E. coli, purified; N-terminal His6 tag (given for SPR); glycosomal homotetramer

Assays:
[1] = molecular target: T1, TbPFK (Trypanosoma brucei phosphofructokinase) (Trypanosoma brucei, UniProt O15648); assay: SPR steady state, His6-PFK captured on Ni-NTA chip; type: binding
T1 construct: gene pfk; recombinant, E. coli, purified; N-terminal His6 tag (for SPR and reaction order tests); tetramer of 53-kDa subunits
T1 sequence (O15648 1-487): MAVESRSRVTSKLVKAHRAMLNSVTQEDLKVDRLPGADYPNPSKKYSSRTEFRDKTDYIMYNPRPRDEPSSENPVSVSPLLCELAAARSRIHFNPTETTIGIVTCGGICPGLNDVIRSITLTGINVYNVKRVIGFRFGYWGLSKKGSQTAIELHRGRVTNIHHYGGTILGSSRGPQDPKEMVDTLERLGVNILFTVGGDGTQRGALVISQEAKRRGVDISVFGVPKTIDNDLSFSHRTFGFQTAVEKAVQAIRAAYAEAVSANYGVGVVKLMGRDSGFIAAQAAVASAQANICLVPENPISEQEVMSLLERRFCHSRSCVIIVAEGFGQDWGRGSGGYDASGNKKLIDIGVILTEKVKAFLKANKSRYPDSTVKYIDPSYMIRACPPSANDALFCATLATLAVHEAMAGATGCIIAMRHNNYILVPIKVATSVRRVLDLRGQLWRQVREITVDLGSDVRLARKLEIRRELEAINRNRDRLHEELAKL
From the text: SPR steady state, His6-PFK captured on Ni-NTA chip on TbPFK (Trypanosoma brucei phosphofructokinase)

[2] = molecular target: T2, LiPFK (Leishmania infantum phosphofructokinase) (Leishmania infantum, UniProt A4I4W5); assay: SPR steady state, His6-PFK captured on Ni-NTA chip; type: binding
T2 construct: gene pfk; recombinant, E. coli, purified; N-terminal His6 tag (given for SPR); glycosomal homotetramer
T2 sequence (A4I4W5 1-486): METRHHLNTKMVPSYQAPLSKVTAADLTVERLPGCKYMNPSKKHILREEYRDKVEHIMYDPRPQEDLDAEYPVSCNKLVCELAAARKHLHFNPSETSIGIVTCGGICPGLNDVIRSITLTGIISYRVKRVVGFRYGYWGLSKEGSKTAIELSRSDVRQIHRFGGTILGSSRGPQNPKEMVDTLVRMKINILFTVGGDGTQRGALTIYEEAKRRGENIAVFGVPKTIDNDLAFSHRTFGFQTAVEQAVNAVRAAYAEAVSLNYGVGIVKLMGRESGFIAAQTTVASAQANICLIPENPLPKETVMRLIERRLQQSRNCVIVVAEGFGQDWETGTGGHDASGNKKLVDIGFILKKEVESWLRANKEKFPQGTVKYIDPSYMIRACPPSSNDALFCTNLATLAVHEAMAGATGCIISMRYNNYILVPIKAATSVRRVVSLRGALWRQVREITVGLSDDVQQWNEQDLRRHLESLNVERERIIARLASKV
From the text: SPR steady state, His6-PFK captured on Ni-NTA chip on LiPFK (Leishmania infantum phosphofructokinase)

[3] = molecular target: T3, TcPFK (Trypanosoma cruzi phosphofructokinase) (Trypanosoma cruzi, UniProt Q4E657); assay: SPR steady state, His6-PFK captured on Ni-NTA chip; type: binding
T3 construct: gene pfk; recombinant, E. coli, purified; N-terminal His6 tag (given for SPR); glycosomal homotetramer
T3 sequence (Q4E657 1-485): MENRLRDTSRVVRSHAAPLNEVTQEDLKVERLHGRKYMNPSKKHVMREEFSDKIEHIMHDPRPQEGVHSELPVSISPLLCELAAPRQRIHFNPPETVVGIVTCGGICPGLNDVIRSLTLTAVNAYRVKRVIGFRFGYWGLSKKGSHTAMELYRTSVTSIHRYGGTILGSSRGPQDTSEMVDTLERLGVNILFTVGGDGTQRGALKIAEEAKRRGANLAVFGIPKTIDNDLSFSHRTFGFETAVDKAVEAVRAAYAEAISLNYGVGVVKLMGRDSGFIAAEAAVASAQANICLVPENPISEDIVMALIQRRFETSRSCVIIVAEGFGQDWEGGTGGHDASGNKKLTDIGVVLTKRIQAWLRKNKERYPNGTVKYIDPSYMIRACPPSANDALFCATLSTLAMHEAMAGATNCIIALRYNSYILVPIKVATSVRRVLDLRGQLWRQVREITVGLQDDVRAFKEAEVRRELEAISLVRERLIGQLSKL
From the text: SPR steady state, His6-PFK captured on Ni-NTA chip on TcPFK (Trypanosoma cruzi phosphofructokinase)

[4] = molecular target: the molecule itself; assay: crystal structure; TbPFK at 6 mg/mL in gel filtration buffer with 1 mM F16BP, 1 mM AMP and 500 µM PFK inhibitor, hanging drop, 18 °C, 9.5% PEG 8000, 0.1 M sodium cacodylate pH 7.4; only AMP seen bound; two tetramers in the asymmetric unit
[5] = substrate: Nc1nc2c(ncn2[C@@H]2O[C@H](COP(=O)(O)OP(=O)(O)OP(=O)(O)O)[C@@H](O)[C@H]2O)c(=O)[nH]1; assay: pyruvate kinase-lactate dehydrogenase coupled assay, A340, sigmoidal fit; type: biochemical, Trypanosoma brucei; details: 3 mM F6P, no AMP, 10 mM MgCl2, 100 mM KCl, pH 7.4, 25 °C
From the text: pyruvate kinase-lactate dehydrogenase coupled assay, A340, sigmoidal fit on TbPFK (Trypanosoma brucei phosphofructokinase)

[6] = substrate: Nc1nc2c(ncn2[C@@H]2O[C@H](COP(=O)(O)OP(=O)(O)OP(=O)(O)O)[C@@H](O)[C@H]2O)c(=O)[nH]1; assay: as above; type: biochemical, Trypanosoma cruzi; details: 3 mM F6P, no AMP, 10 mM MgCl2, 100 mM KCl, pH 7.4, 25 °C
From the text: pyruvate kinase-lactate dehydrogenase coupled assay, A340, sigmoidal fit on TcPFK (Trypanosoma cruzi phosphofructokinase)

| Molecule | Kd [1] | Kd [2] | Kd [3] | further results |
| --- | --- | --- | --- | --- |
| Nc1ncnc2c1ncn2[C@@H]1O[C@H](COP(=O)(O)OP(=O)(O)O)[C@@H](O)[C@H]1O [ADP] | 560 µM | 160 µM | 730 µM |  |
| Nc1ncnc2c1ncn2[C@@H]1O[C@H](COP(=O)(O)O)[C@@H](O)[C@H]1O [AMP] | 470 µM | 2300 µM | 1040 µM |  |
| Nc1ncnc2c1ncn2[C@@H]1O[C@H](COP(=O)(O)OP(=O)(O)OP(=O)(O)O)[C@@H](O)[C@H]1O [ATP] | 15.8 µM | 16.8 µM | 35.4 µM |  |
| B1 |  |  |  | stoichiometry N [4]: 4; K0.5 [5]: 123 (8) μM; Vmax [5]: 38.3 µmol/min/mg; kcat [5]: 35.6 s⁻¹ |
| B2 |  |  |  | K0.5 [6]: 195 (14) μM; Vmax [6]: 63 µmol/min/mg; kcat [6]: 58.7 s⁻¹ |
